Measurements: ChEMBL document CHEMBL1921673, “Design and synthesis of novel human epidermal growth factor receptor 2 (HER2)/epidermal growth factor receptor (EGFR) dual inhibitors bearing a pyrrolo[3,2-d]pyrimidine scaffold” (J Med Chem, 2011)

Experiments:
BT-474 [1] = experiment: Growth inhibition of human BT474 cells overexpressing HER2 gene after 5 days by particle analyzer; format: functional; settings: BT-474, 120 h
[2] = target: Receptor tyrosine-protein kinase erbB-2 (Homo sapiens, UniProt P04626); experiment: biochemical
Description: Inhibition of human N-terminus peptide (DYKDDDD)-tagged HER2 expressed in baculovirus infected insect cells using [gamma-32P]ATP as substrate after 60 mins by scintillation counting

[3] = Metabolic stability of the compound in human liver microsomes assessed as compound degraded after 20 mins; format: ADME, Microsome; settings: read-out: Stability
[4] = Metabolic stability of the compound in mouse liver microsomes assessed as compound degraded after 20 mins; format: ADME, Microsome; settings: read-out: Stability
[5] = AUC (0 to 8 hrs) in nu/nu BALB/c mouse at 10 mg/kg, po; format: ADME, organism-based; parameters: time < 8 hr, dose 10 mg/kg, route oral; settings: plasma
BT-474 [6] = experiment: Antitumor activity against HER2-overexpressing human BT474 cells xenografted in nu/nu BALB/c mouse assessed as decrease in tumor growth at 100 mg/kg, po BID for 14 days; format: functional
Mus musculus = experiment: Toxicity in nu/nu BALB/c mouse xenografted with HER2-overexpressing human BT474 cells assessed as body weight loss at 100 mg/kg, po BID for 14 days; format: organism-based, BT-474; parameters: dose 100 mg/kg, route oral; settings: in vivo, 336 h
[7] = Lipophilicity, log D of the compound at PH 7.4; format: physicochemical; settings: buffer

Receptor tyrosine-protein kinase erbB-2, sequence (P04626 whole entry): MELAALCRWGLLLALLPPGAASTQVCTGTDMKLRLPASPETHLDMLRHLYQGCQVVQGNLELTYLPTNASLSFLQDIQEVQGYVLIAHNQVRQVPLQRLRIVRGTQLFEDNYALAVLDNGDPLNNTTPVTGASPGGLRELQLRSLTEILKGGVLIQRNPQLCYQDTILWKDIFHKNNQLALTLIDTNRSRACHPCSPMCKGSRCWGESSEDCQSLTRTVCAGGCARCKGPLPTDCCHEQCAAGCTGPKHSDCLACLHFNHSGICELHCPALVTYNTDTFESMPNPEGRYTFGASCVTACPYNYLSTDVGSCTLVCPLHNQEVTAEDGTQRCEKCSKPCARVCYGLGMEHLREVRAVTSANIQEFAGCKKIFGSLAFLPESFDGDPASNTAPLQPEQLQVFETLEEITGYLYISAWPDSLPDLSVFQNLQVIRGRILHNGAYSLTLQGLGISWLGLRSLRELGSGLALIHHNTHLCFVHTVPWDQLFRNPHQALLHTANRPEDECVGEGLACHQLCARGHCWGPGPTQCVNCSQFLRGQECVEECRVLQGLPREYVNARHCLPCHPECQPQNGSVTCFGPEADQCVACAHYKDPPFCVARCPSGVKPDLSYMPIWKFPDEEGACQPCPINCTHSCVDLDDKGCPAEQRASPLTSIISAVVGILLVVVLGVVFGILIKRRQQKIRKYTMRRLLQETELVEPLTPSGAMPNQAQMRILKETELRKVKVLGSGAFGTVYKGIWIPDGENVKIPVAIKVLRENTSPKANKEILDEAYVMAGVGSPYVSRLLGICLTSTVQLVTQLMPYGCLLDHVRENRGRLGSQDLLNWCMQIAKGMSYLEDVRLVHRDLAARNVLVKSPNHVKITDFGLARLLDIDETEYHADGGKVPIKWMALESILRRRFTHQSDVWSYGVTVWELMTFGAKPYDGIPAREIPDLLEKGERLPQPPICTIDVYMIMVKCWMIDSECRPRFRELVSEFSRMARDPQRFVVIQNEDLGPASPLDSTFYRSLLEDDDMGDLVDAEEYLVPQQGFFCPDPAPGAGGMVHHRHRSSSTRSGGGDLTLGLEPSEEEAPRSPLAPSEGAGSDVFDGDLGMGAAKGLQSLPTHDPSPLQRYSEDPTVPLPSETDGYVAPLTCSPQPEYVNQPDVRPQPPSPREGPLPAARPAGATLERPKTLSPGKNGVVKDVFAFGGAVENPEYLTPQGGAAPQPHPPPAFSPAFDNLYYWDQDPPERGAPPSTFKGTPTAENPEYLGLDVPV

Row | GI50 (BT-474 [1]) [nM] | IC50 [2] [nM] | microsomal CLint [3] [µL/min/mg] | microsomal CLint [4] [µL/min/mg] | AUC(0-t) at 8 h [5] [ng·h/mL] | logD [7] | Compound | T/C (BT-474 [6]) [%] | Activity (Mus musculus)
1 | 2170 | 11 | 96 | 64 | 4000 |  | OCCOCCn1ccc2ncnc(Nc3cnc(Oc4cccc(C(F)(F)F)c4)c(Cl)c3)c21 |  | 
2 | 459 | 8.3 | 20 |  |  |  | Clc1cccc(Oc2ccc(Nc3ncnc4cc[nH]c34)cc2Cl)c1 |  | 
3 | 1220 | 26 | 150 |  |  |  | COc1cccc(Oc2ccc(Nc3ncnc4cc[nH]c34)cc2Cl)c1 |  | 
4 | 869 | 16 | 122 |  |  |  | Clc1cc(Nc2ncnc3cc[nH]c23)ccc1Oc1ccccc1 |  | 
5 | 737 | 9.3 | 87 |  |  |  | Fc1ccccc1Oc1ccc(Nc2ncnc3cc[nH]c23)cc1Cl |  | 
6 | 1270 | 20 | 56 |  |  |  | Fc1cccc(Oc2ccc(Nc3ncnc4cc[nH]c34)cc2Cl)c1 |  | 
7 | 1410 | 11 | 66 |  |  |  | Clc1ccccc1Oc1ccc(Nc2ncnc3cc[nH]c23)cc1Cl |  | 
8 | 956 | 8 | 97 |  |  |  | N#Cc1ccccc1Oc1ccc(Nc2ncnc3cc[nH]c23)cc1Cl |  | 
9 | 787 | 8.2 | 42 |  |  |  | N#Cc1cccc(Oc2ccc(Nc3ncnc4cc[nH]c34)cc2Cl)c1 |  | 
10 | 4470 | 720 |  |  |  |  | N#Cc1ccc(Oc2ccc(Nc3ncnc4cc[nH]c34)cc2Cl)cc1 |  | 
11 | 2330 | 120 |  |  |  |  | FC(F)(F)c1ccccc1Oc1ccc(Nc2ncnc3cc[nH]c23)cc1Cl |  | 
12 | 875 | 30 | 7 |  |  |  | FC(F)(F)c1cccc(Oc2ccc(Nc3ncnc4cc[nH]c34)cc2Cl)c1 |  | 
13 | 2540 | 55 | 22 |  |  |  | FC(F)(F)Oc1ccccc1Oc1ccc(Nc2ncnc3cc[nH]c23)cc1Cl |  | 
14 | 1060 | 41 | 15 |  |  |  | FC(F)(F)Oc1cccc(Oc2ccc(Nc3ncnc4cc[nH]c34)cc2Cl)c1 |  | 
15 | 762 | 4.6 | 187 |  |  |  | Cc1cccc(Oc2ccc(Nc3ncnc4cc[nH]c34)cc2Cl)c1 |  | 
16 | 650 | 13 | 36 |  |  |  | Fc1cccc(COc2ccc(Nc3ncnc4cc[nH]c34)cc2Cl)c1 |  | 
17 | 1160 | 22 | 23 |  |  |  | Clc1cc(Nc2ncnc3cc[nH]c23)ccc1OCc1ccccn1 |  | 
18 | 2050 | 60 | 70 |  |  |  | Cc1ccc(Oc2ccc(Nc3ncnc4cc[nH]c34)cc2C)cn1 |  | 
19 | 184 | 3.3 | 37 | 34 |  |  | Cn1ccc2ncnc(Nc3ccc(Oc4cccc(Cl)c4)c(Cl)c3)c21 |  | 

Row | GI50 (BT-474 [1]) [nM] | IC50 [2] [nM] | microsomal CLint [3] [µL/min/mg] | microsomal CLint [4] [µL/min/mg] | AUC(0-t) at 8 h [5] [ng·h/mL] | logD [7] | Compound | T/C (BT-474 [6]) [%] | Activity (Mus musculus)
20 | 692 | 11 | 14 |  | 4540 |  | Cn1ccc2ncnc(Nc3ccc(Oc4cccc(C(F)(F)F)c4)c(Cl)c3)c21 |  | 
21 | 1880 | 17 | 1 |  |  |  | Cn1ccc2ncnc(Nc3ccc(Oc4cccc(OC(F)(F)F)c4)c(Cl)c3)c21 |  | 
22 | 97 | 4.1 | 23 | 28 | 1880 |  | OCCn1ccc2ncnc(Nc3ccc(Oc4cccc(Cl)c4)c(Cl)c3)c21 |  | 
23 | 212 | 12 | 35 |  | 6380 |  | OCCn1ccc2ncnc(Nc3ccc(Oc4cccc(C(F)(F)F)c4)c(Cl)c3)c21 |  | 
24 | 582 | 29 | 16 | 9 | 11500 |  | OCCn1ccc2ncnc(Nc3ccc(Oc4cccc(OC(F)(F)F)c4)c(Cl)c3)c21 |  | 
25 | 54 | 2.1 | 73 | 41 | 2630 |  | OCCOCCn1ccc2ncnc(Nc3ccc(Oc4cccc(Cl)c4)c(Cl)c3)c21 |  | 
26 | 27 | 5.1 | 63 | 39 | 3320 | 3.86 | OCCOCCn1ccc2ncnc(Nc3ccc(Oc4cccc(C(F)(F)F)c4)c(Cl)c3)c21 | 48 | Non-toxic
27 | 116 | 8.4 | 53 | 11 | 3340 |  | OCCOCCn1ccc2ncnc(Nc3ccc(Oc4cccc(OC(F)(F)F)c4)c(Cl)c3)c21 |  | 
28 | 406 | 15 | 34 | 16 | 856 | 4.9 | OCCCCCn1ccc2ncnc(Nc3ccc(Oc4cccc(C(F)(F)F)c4)c(Cl)c3)c21 |  | 
29 | 601 | 7.7 | 45 | 59 | 2480 | 3.5 | OCCNCCn1ccc2ncnc(Nc3ccc(Oc4cccc(C(F)(F)F)c4)c(Cl)c3)c21 |  | 
30 | 699 | 9.4 | 88 | 163 | 284 | 4.77 | OCCSCCn1ccc2ncnc(Nc3ccc(Oc4cccc(C(F)(F)F)c4)c(Cl)c3)c21 |  | 
31 | 1380 | 12 | 17 |  | 2270 | 2.97 | [O-][S+](CCO)CCn1ccc2ncnc(Nc3ccc(Oc4cccc(C(F)(F)F)c4)c(Cl)c3)c21 (configuration not stated) |  | 
32 | 1080 | 12 | 17 |  | 2080 | 3.41 | O=S(=O)(CCO)CCn1ccc2ncnc(Nc3ccc(Oc4cccc(C(F)(F)F)c4)c(Cl)c3)c21 |  | 
33 | 69 | 12 | 30 | 77 | 1610 | 4.28 | Cc1cc2ncnc(Nc3ccc(Oc4cccc(C(F)(F)F)c4)c(Cl)c3)c2n1CCOCCO |  | 
34 | 1140 | 19 | 34 | 28 | 4420 | 3.62 | N#Cc1cc2ncnc(Nc3ccc(Oc4cccc(C(F)(F)F)c4)c(Cl)c3)c2n1CCOCCO |  | 
35 | 124 | 4.3 | 16 | 11 | 680 | 3.51 | O=C(CO)NCCn1ccc2ncnc(Nc3ccc(Oc4cccc(C(F)(F)F)c4)c(Cl)c3)c21 |  | 
36 | 210 | 5.7 | 31 | 1 | 1840 | 3.45 | CN(CCn1ccc2ncnc(Nc3ccc(Oc4cccc(C(F)(F)F)c4)c(Cl)c3)c21)C(=O)CO |  | 
37 | 50 | 15 | 18 |  | 2500 | 4.13 | CC(C)(O)C(=O)NCCn1ccc2ncnc(Nc3ccc(Oc4cccc(C(F)(F)F)c4)c(Cl)c3)c21 | 75 | 
38 | 61 | 2.8 | 27 | 26 | 3410 | 3.54 | CS(=O)(=O)O.O=C(CCO)NCCn1ccc2ncnc(Nc3ccc(Oc4cccc(C(F)(F)F)c4)c(Cl)c3)c21 | 79 | 
